Legend:
[1] = tested on: ATCC25922 cells; assay: Neutropenic murine bacterial thigh infection model; assay type: in vivo, Escherichia coli
Procedure: Six-eight week-old, specific-pathogen-free, female CD-1 mice (weight, 25-35 g) were rendered neutropenic by intraperitoneal injection with 150 mg/kg cylcophosphamide (Sigma) four days before infection and 100 mg/kg cyclophosphamide 24 hours before infection. LB broth cultures inoculated from fresh ATCC25922 colonies and cells were grown to the log phase (OD600 of approximately 0.3) and diluted 1:1000 in LB broth. Thigh infections were produced by injecting 50 μl (approximately 10^6 CFUs) of diluted cultures into halothane-anesthetized mice. One group of mice was administrated inteperitoneal injection of 4,4-Fe-PcTs in conjunction with the second dose of cyclophosphamide (24 hours prior infection) (4,4-Fe-PcTs (pre)+CFX). Starting two hours after infection (defined as time zero), mice were administered subcutaneous injections of either 1 mg/kg ciprofloxacin alone (CFX) or co-treatment of 1 mg/kg ciprofloxacin with interperitoneal injection of 10 mg/kg 4,4-Fe-PcTs (4,4-Fe-PcTs+CFX and 4,4-Fe-PcTs (pre)+CFX) every 24 hours for 3 days. After 48 and 72 hours, three mice from each group were sacrificed, and their thighs removed and homogenized to determine the number of viable bacterial cells for both ciprofloxacin-sensitive and ciprofloxacin-resistant ATCC25922 cells. Serial dilutions of homogenates of the infected thigh were plated on LB agar (CFX Sensitive) and LB agar plates containing ciprofloxacin (40 nM) (CFX Resistant) to count viable cells for each of the three treatment groups.

[2] = tested on: Pseudomonas aeruginosa ATCC27853; assay: Antibiotic sensitivity assay (CFUs/ml), P. aeruginosa; assay type: cell-based; settings: compound 25 μM; ciprofloxacin 6.5 μM
Procedure: (§1) Bacterial cultures were diluted to 10^5 cells/mL in LB broth (ATCC25922) or MH broth (ATCC27853, ATCC29212, ATCC29213). Antibiotics and/or phthalocyanines were added at indicated concentrations and the culture was incubated at 37° C. Samples were collected at 0, 24, 48, and 72 hours and plated on LB agar (ATCC25922) or tryptic soy blood agar (ATCC27853, ATCC29212, ATCC29213) to determine CFUs/ml.
(§2) To confirm that the activity of 4,4-Fe-PcTs was not specific to the gram-negative ATCC25922 E. coli, the ability of 4,4-Fe-PcTs to potentiate the activity of ciprofloxacin in another gram-negative (Pseudomonas aeruginosa ATCC27853) strain and two gram-positive (Staphylococcus aureus ATCC29213 and Enterococcus faecalis ATCC29212) strains was evaluated.

[3] = tested on: E. coli ATCC25922; assay: Filamentation assay; assay type: cell-based, Escherichia coli; settings: 4,4-Fe-PcTs 25 μM; CFX 40 nM; three hours
Procedure: Overnight cultures of E. coli ATCC25922 were grown in LB at 37° C. […] The cells were stained using the standard Gram staining technique and imaged using light microscopy at 100× magnification.

[4] = tested on: Staphylococcus aureus ATCC29213; assay: Antibiotic sensitivity assay (CFUs/ml), S. aureus; assay type: cell-based; settings: compound 25 μM; ciprofloxacin 6.5 μM
Procedure: as §1, §2

[5] = tested on: mouse bone marrow cells; assay: Viability of mouse bone marrow cells; assay type: cell-based; settings: maximum concentration tested (100 μM); 24 and 48 hours
Excerpt: Error bars represent the standard deviation from three independent experiments.

[6] = tested on: SOS response (E. coli strain SS996); assay: SOS induction, GFP regulated by the sulA SOS promoter, flow cytometry; assay type: cell-based, Escherichia coli; settings: 4,4-Fe-PcTs 25 μM, three hours
Procedure: To confirm that the bactericidal antibiotic potentiating activity of 4,4-Fe-PcTs was correlated with reduced SOS induction, SOS induction in the E. coli strain SS996 was monitored. This strain contains a green fluorescent protein (GFP) regulated by the sulA SOS promoter.
SS996 cultures were grown to an optical density at 600 nm (OD600) of 0.3. For cultures treated with 4,4-Fe-PcTs, the 4,4-Fe-PcTs was added to give a concentration of 25 μM and the culture was incubated for three hours at 37° C. Antibiotics were then added to yield concentrations of 2.5 μM (CFX), 40 μM (AMP), 43 μM (KAN), 21 μM (TET), 46 μM (CAM), or 808 μM (SPECT). Samples (˜10^6 cells) were taken immediately before the addition of antibiotics (time zero) and every hour for three hours. Samples were washed once in PBS, and resuspended in PBS prior to analysis by flow cytometry. GFP expression was monitored using flow cytometer (Beckman Coulter, Inc.) with a 488 nm argon laser and a 515-545 nm emission. Flow cytometry data were analyzed using Flowjo (Tree Star, Inc.).

[7] = target: EcRecA (Escherichia coli, UniProt P0A7G6); settings: compound 10 μM; poly-(dT)36-stimulated; relative to reaction without inhibitor
Procedure: An ATPase assay [18] was used to screen a set of commercially available anionic, aromatic molecules for inhibitors of RecA ATPase activity. The release of inorganic phosphate by ATP hydrolysis was monitored using a Malachite Green phosphate assay [18]. The ssDNA-dependent ATPase reaction contained 1 μM EcRecA, 6 μM ssDNA (poly-(dT)36, concentration in nucleotides), 5 mM ATP, 50 mM Tris-Hepes buffer at pH 7.4, 10 mM MgCl2, 0.1% v/v 2-mercaptoethanol, and indicated amounts of 4,4-Fe-PcTs or 3,4-Cu-PcTs. Phosphate levels were measured by transferring 25 μl of ATPase reaction to 475 μl of malachite green phosphate assay, which contained 0.033% w/v Malachite Green, 1.3% w/v ammonium molybdate. 1.0 M HCl was used to monitor the release of inorganic phosphate by ATP hydrolysis [18]. The green complex formed between Malachite Green, molybdate, and free orthophosphate was measured by recording the absorbance at 620 nm.
Results are the average of two independent experiments where the deviation was less than 10%.

[8] = tested on: E. coli strain ATCC25922; assay: Antibiotic sensitivity assay (CFUs/ml), E. coli; assay type: cell-based, Escherichia coli
Procedure: as §1
The ability of 4,4-Fe-PcTs and 3,4-Cu-PcTs to potentiate the activity of ciprofloxacin (abbreviated “CFX”) was tested. Ciprofloxacin inhibits DNA gyrase in bacteria, causing accumulation of double-stranded DNA breaks (DSBs) and inducing the SOS response. The inventors characterized the ability of 4,4-Fe-PcTs and 3,4-Cu-PcTs to potentiate the activity of ciprofloxacin in the pathogenic E. coli strain ATCC25922, which was used previously by Cirz et al. to evaluate the role of SOS response proteins in antibiotic resistance.

[9] = tested on: ATCC29522 cells; assay: Biofilm formation assay (crystal violet); assay type: cell-based, Escherichia coli; settings: Fe-PcTs 25 μM; ciprofloxacin 40 nM; plastic surface, 96-well plate
Procedure: Biofilm formation on a plastic surface was analyzed using a 96-well plate (Falcon) as described previously. ATCC29522 cells were diluted in LB broth to 1×10^5 CFUs/ml. A 100 μl aliquot of cells was added to each well in the plate. Ciprofloxacin (CFX) was then added at a final concentration of 40 nM to each well and plates were incubated at 37° C. for 20 hours. Wells were aspirated and washed three times with 150 μl of PBS. Wells were stained with 120 μl of 0.1% crystal violet (Fisher) for 20 minutes. The crystal violet stain was aspirated and wells were washed three times with 150 μl of PBS. The plate was air-dried and the dye bound to adherent cells was resolubilized with 150 μl of 30% (v/v) glacial acetic acid (Fisher). The plate was incubated at room temperature for 20 minutes with shaking. The biofilm formation was quantified by measuring the OD600 nm using a plate reader.

EcRecA, sequence (P0A7G6 whole entry): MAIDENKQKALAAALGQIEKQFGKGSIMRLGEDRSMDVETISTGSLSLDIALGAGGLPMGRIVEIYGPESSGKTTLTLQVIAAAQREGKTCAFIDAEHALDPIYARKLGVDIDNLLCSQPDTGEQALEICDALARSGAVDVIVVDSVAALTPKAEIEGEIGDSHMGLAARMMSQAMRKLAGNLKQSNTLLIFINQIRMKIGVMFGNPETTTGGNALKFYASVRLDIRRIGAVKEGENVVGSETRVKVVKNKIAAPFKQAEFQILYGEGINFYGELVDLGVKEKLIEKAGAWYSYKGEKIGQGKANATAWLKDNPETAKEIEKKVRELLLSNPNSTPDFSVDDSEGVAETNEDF

iron (III) phthalocyanine-4,4′,4″,4′″-tetrasulfonic acid [4,4-Fe-PcTs]
potentiation of ciprofloxacin by pretreatment versus co-treatment only ([1]; 4,4-Fe-PcTs given 24 hours prior to infection plus co-treatment): potentiated the activity of ciprofloxacin more
ciprofloxacin-resistant cells in thigh ([1]; mice co-treated with ciprofloxacin 1 mg/kg and 4,4-Fe-PcTs 10 mg/kg i.p. (with or without pretreatment)): no ciprofloxacin resistant cells were observed
potentiation of ciprofloxacin activity [2]: potentiated the activity of ciprofloxacin
effect on ciprofloxacin-induced in vitro filamentation [3]: reduced the ability of ciprofloxacin to induce
potentiation of ciprofloxacin activity [4]: potentiated the activity of ciprofloxacin
toxicity to mouse bone marrow [5]: not toxic
effect on ampicillin-induced SOS response (GFP) ([6]; AMP 40 μM): reduced the ability
effect on ciprofloxacin-induced SOS response (GFP) ([6]; CFX 2.5 μM): reduced the ability
inhibition of EcRecA ATPase activity [7]: high degree of inhibition
CFUs on co-treatment with ampicillin ([8]; 4,4-Fe-PcTs 25 μM + AMP 40 μM, after 24 hours): eliminating all CFUs
effect on activity of chloramphenicol (bacteriostatic) ([8]; 4,4-Fe-PcTs 25 μM + CAM 46 μM): very slight effect
CFUs on co-treatment with ciprofloxacin ([8]; 4,4-Fe-PcTs 25 μM + CFX 40 nM, after 24 hours): eliminating all CFUs
CFUs on co-treatment with kanamycin ([8]; 4,4-Fe-PcTs 25 μM + KAN 43 μM, after 24 hours): eliminating all CFUs
effect on activity of spectinomycin (bacteriostatic) ([8]; 4,4-Fe-PcTs 25 μM + SPECT 808 μM): very slight effect
effect on activity of tetracycline (bacteriostatic) ([8]; 4,4-Fe-PcTs 25 μM + TET 21 μM): very slight effect
potentiation of ciprofloxacin activity ([8]; ciprofloxacin 40 nM): potentiated the activity of ciprofloxacin
colony forming units (CFUs) ([8]; co-treated with ciprofloxacin 40 nM and compound at concentrations above 25 μM): no colony forming units (CFUs) were observed
effect on ciprofloxacin-induced biofilm formation [9]: reduced the ability of ciprofloxacin to induce
